Results as given in US8642622B2, “Piperidinyl compound as a modulator of chemokine receptor activity” (Bristol-Myers Squibb Company, priority 2010, dated 2014).

Target: T1, hERG potassium channel (Homo sapiens, UniProt Q12809)
T1 construct: expressed in transfected cells
Test: hERG patch clamp assay
Type: cell-based
Conditions: HEK-293 cells stably expressing hERG, pH 7.4, HEK-293, protein-free buffer, read-out: hERG channel, % inh
Description: Whole-cell patch-clamp was used to directly measure hERG tail currents in HEK-293 cells stably expressing the cloned hERG potassium channel α subunit. Effects of compounds were calculated by measuring inhibition of peak tail current. Experiments were carried out using an aqueous buffer with pH 7.4 at room temperature. There was no protein in the assay buffer. The test concentrations reported are nominal free drug levels. Data is reported as percent inhibition at a fixed concentration.

T1 sequence (Q12809 whole entry): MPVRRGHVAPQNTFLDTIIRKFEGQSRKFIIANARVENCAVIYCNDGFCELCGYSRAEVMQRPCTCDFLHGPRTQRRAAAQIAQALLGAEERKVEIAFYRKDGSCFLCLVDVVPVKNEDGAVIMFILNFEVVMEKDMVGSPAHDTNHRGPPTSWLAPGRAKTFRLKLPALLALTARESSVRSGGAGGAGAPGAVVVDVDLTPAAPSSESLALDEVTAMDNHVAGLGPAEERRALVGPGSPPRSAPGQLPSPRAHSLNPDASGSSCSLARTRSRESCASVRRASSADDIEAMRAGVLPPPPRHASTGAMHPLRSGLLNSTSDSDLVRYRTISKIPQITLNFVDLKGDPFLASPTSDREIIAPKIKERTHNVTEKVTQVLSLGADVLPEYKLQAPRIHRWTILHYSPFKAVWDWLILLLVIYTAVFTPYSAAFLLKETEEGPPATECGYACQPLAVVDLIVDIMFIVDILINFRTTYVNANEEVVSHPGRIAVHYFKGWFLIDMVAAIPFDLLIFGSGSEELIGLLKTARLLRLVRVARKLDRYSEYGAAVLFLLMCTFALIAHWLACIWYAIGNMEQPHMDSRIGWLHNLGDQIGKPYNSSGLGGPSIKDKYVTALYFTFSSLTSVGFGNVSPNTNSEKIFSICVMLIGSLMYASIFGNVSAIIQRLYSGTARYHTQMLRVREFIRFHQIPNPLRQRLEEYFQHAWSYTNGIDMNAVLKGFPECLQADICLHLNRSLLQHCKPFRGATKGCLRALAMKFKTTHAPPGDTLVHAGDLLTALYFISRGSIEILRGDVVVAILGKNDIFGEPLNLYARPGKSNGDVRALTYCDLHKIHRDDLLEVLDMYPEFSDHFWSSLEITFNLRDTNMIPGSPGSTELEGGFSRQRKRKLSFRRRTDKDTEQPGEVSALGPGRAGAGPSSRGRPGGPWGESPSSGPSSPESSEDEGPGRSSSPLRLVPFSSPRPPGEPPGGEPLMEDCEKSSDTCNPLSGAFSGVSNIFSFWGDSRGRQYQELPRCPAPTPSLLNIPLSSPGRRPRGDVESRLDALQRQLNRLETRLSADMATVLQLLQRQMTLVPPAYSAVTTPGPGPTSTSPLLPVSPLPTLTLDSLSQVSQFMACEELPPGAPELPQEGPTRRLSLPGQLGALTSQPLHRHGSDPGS

CC(C)[C@@H](NC(=O)[C@@H]1CCC(F)(F)C1)C(=O)N1CC[C@](O)(c2ccc(Cl)cc2)[C@@](C)(O)C1 [Compound I, (R)—N—((R)-1-((3S,4S)-4-(4-chlorophenyl)-3,4-dihydroxy-3-methylpiperidin-1-yl)-3-methyl-1-oxobutan-2-yl)-3,3-difluorocyclopentanecarboxamide]
inhibition at 30 µM: 22%
